The text below walks through data of patent US12371675B2, “Process and microorganism for synthesis of adipic acid from carboxylic acids” (THE GOVERNING COUNCIL OF THE UNIVERSITY OF TORONTO, priority 2015, dated 2025).

By Km is commonly meant the concentration of substrate that gives half-maximal velocity. As a reminder, the kcat is the number of substrate molecules converted per active site and unit of time at saturation. What is called kcat/Km is the turnover number divided by the Michaelis constant.

The target of data set [1] is T1, Mycobacterium smegmatis carboxylate reductase MSMEG_5739, SEQ ID NO: 37 (Mycolicibacterium smegmatis, UniProt A0R484).
T1 sequence (A0R484 1-1173): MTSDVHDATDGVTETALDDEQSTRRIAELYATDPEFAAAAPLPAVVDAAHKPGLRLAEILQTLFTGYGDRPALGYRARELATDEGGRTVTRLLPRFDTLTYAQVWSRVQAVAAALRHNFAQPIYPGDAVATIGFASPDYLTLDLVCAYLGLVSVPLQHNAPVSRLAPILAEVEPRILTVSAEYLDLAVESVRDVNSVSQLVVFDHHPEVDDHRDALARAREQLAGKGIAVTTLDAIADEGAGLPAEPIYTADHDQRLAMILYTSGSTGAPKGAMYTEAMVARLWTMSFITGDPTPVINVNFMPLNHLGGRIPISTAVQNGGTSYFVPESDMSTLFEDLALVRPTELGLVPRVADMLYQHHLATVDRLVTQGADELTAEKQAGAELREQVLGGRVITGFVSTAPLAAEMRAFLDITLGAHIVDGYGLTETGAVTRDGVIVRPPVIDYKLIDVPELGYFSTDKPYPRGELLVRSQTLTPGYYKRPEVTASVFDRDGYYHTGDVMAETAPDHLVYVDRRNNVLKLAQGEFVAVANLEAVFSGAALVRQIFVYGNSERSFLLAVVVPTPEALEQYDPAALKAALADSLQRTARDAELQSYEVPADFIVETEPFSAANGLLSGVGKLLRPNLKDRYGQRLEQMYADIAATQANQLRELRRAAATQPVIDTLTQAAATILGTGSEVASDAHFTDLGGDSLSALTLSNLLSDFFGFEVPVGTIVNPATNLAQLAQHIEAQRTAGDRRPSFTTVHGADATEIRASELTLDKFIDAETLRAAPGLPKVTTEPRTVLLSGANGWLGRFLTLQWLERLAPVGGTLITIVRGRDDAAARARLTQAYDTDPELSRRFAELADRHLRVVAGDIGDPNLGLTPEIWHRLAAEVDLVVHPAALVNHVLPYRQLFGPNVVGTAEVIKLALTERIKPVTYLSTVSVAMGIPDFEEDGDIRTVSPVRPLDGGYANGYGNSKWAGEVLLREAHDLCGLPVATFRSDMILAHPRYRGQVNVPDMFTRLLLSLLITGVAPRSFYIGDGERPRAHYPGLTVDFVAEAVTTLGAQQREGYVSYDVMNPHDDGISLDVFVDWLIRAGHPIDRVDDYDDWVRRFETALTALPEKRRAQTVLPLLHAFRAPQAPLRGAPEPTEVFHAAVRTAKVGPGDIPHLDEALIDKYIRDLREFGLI
Kind of data set: CAR kinetics, ATP/NADPH dependent carboxylic acid reduction.

Data set [2] deals with T2, Mycobacterium smegmatis carboxylate reductase MSMEG_2956, SEQ ID NO: 70 (Mycolicibacterium smegmatis, UniProt A0QWI7).
T2 sequence (A0QWI7 1-1168): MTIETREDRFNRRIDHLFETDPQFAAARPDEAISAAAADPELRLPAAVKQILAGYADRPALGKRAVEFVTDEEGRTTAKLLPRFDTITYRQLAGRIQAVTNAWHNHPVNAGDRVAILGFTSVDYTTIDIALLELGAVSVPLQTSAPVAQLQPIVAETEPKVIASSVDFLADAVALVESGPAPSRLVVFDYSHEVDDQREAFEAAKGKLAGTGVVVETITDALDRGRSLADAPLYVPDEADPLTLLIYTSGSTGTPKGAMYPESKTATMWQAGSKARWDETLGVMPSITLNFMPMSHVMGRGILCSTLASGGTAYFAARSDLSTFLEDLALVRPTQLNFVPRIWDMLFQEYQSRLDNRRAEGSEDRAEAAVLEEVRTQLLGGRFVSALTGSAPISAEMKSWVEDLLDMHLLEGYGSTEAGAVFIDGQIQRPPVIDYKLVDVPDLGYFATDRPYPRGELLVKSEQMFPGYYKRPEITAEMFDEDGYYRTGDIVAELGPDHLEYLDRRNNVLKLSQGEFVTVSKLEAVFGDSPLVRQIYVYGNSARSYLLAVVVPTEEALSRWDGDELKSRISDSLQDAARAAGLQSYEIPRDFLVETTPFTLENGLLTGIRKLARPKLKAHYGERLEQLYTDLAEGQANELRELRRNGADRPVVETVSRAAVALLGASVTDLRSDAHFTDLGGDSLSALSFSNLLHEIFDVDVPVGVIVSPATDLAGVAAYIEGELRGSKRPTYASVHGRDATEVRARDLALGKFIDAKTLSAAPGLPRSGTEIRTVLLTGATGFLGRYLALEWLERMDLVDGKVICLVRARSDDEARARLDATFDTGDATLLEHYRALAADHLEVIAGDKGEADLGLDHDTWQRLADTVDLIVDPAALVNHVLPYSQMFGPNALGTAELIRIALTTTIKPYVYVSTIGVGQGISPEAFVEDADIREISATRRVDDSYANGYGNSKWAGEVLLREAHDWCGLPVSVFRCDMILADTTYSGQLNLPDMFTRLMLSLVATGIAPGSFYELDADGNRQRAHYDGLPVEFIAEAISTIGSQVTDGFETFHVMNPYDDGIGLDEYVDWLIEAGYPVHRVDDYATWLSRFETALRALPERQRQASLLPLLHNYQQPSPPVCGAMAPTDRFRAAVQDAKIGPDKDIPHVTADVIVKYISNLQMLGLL
The data set is described as above.

The target in data set [3] is Bacillus coagulans 36D1 2-enoate reductase EREDBC, SEQ ID NO: 1 (Heyndrickxia coagulans, UniProt A0AAN0T7I1). Kind of data set: Kinetics of purified EREDBC, NADH oxidation at 340 nm, anaerobic. The class given is biochemical. Conditions: for saturation by substrate: anaerobic, aqueous buffer. How it is done:
(§1) The C═C reducing activity of EREDs was examined. Enzyme activity of purified EREDs was measured spectrophotometrically in 96-well plates by following incubation for 3-5 min at 30° C. in the anaerobic chamber as described in M. Buhler, H. Simon, Hoppe-Seyler's Zeitschrift fur Physiologische Chemie 1982, 363, 609-625. Buffers and reagents were degassed and sparged with Ar. Reaction mixture contained potassium phosphate (100 mM and pH 7.0), NADH (0.5 mM), indicated substrates, and proteins (0.1-50 μg) in a final volume of 200 μL. Enzyme reactions were monitored by following the decrease in absorbance at 340 nm (ε340 nm=6,220/M·cm) due to oxidation of NADH to NAD+.
(§2) For in vitro biochemical characterization, enzyme activities of purified EREDs were measured with 2-hexenedioic acid, cis-cis-muconic acid, trans-trans muconic acid, trans-cinnamic acid, trans-2-methyl-2-butenoic acid, trans-2-butenoic acid, acrolein, 2-cyclohexen-1-one, and 3-methyl-2-cyclohexenone. […] [Feng, J. et al. Discovery and Characterization of BlsE, a Radical S-Adenosyl-L-methionine Decarboxylase Involved in the Blasticidin S Biosynthetic Pathway. PLoS ONE 8 (2013)].
Kinetic studies of purified EREDBC were performed using 2-hexenedioic acid, 2-cyclohexen-1-one, 3-methyl-2-cyclohexenone, and trans-cinnamic acid as substrates (FIG. 10).
(§3) To increase the dissolved substrate concentration, 2-hexenedioic acid was dissolved in a reaction mixture containing […] (final concentration) isopropanol, and kinetic constants of EREDBC and EREDCA were determined.

Data set [4] has as its target T3, Clostridium acetobutylicum DSM 1731 2-enoate reductase EREDCA, SEQ ID NO: 2 (Clostridium acetobutylicum, UniProt Q97DV0).
T3 sequence (Q97DV0 1-664): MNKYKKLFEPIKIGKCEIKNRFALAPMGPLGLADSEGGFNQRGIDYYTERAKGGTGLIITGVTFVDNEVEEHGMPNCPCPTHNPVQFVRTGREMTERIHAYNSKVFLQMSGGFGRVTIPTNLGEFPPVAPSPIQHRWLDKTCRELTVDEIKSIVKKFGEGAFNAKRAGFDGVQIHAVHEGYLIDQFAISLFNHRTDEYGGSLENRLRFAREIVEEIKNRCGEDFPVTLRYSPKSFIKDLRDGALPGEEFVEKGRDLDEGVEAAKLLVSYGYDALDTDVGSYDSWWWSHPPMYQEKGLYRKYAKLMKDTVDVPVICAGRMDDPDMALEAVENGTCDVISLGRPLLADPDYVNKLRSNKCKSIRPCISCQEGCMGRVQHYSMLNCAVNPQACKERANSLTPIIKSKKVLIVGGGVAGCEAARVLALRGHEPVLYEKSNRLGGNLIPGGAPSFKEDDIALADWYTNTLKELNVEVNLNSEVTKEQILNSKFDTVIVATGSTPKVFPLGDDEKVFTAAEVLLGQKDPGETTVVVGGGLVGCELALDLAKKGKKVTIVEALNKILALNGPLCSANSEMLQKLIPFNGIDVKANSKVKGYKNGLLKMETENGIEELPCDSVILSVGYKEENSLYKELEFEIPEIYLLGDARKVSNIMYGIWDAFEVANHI
Kind of data set: Kinetics of purified EREDCA, NADH oxidation at 340 nm, anaerobic. The class given is biochemical. The settings on record: 4 to 28 mM. On the procedure: as §1, §2, §3

In data set [5] the test system is Rhodococcus jostii aldehyde reductase RHA1_ro05279, SEQ ID NO: 47. Kind of data set: AR kinetics, aldehyde reduction followed by NAD(P)H oxidation. In kind it is biochemical. An excerpt: 28 aldehyde reductases from different bacteria were cloned and overexpressed in E. coli. Enzymes purified using affinity chromatography on Ni-NTA resin were screened for reductase activity with adipaldehyde and butyraldehyde in presence of both NADPH and NADH (Table 5). Butyraldehyde was used as a substrate substitute for 4-oxo-butanal, which is not commercially available. Reactions were followed spectrophotometrically, by cofactor oxidation at 340 nm.
(§4) Enzyme activity of purified ARs was measured spectrophotometrically in 96-well plates Reaction mixtures contained 100 mM HEPES buffer (pH 7.5), 0.4 mM NADH/NADPH, 10 mM adipaldehyde or butylaldehyde, and proteins (10 μg for adipaldehyde screen, 2 μg for butyraldehyde screen) in a final volume of 200 μL Reaction mixture for adipaldehyde screening contained 1.8% DMSO. Enzyme reactions were monitored by following the decrease in absorbance at 340 nm (ε340 nm=6,220/M·cm) due to oxidation of NAD(P)H to NAD(P)+.
ARs RHA1_ro05279, PA1146, SC00229, PP_3370 were characterised for saturation with adipaldehyde, PP_3370, PSPTO_2097, RHA1_ro05279, SC00229, TM_0111, PA1146 were characterised for butyraldehyde saturation (Table 10). […] For both substrates maximal kcat/Km with minimal Km values was shown by AR PP 3370 from Pseudomonas putida.

A short description of data set [6]: AT activity coupled with alanine and glutamate dehydrogenases. Conditions: 10 mM adipaldehyde, alanine and glutamate amino-donors; ND = no activity was detected. The class given is biochemical.
The target of data set [7] is Mycobacterium paratuberculosis carboxylate reductase MAP_1040c, SEQ ID NO: 38 (Mycobacterium avium, UniProt A0ACD7BNV2). Kind of data set: CAR kinetics, ATP/NADPH dependent carboxylic acid reduction.
Data set [8] is described as follows: AR reductase activity, NAD(P)H oxidation at 340 nm. In kind it is biochemical. The settings on record: 10 mM, ND = no activity was detected. On the procedure:
as §4

[9] abbreviates: adipaldehyde, cofactor NADH, 1,8% DMSO.

Bacillus coagulans 36D1 2-enoate reductase EREDBC, SEQ ID NO: 1, sequence (A0AAN0T7I1 entry or part of it): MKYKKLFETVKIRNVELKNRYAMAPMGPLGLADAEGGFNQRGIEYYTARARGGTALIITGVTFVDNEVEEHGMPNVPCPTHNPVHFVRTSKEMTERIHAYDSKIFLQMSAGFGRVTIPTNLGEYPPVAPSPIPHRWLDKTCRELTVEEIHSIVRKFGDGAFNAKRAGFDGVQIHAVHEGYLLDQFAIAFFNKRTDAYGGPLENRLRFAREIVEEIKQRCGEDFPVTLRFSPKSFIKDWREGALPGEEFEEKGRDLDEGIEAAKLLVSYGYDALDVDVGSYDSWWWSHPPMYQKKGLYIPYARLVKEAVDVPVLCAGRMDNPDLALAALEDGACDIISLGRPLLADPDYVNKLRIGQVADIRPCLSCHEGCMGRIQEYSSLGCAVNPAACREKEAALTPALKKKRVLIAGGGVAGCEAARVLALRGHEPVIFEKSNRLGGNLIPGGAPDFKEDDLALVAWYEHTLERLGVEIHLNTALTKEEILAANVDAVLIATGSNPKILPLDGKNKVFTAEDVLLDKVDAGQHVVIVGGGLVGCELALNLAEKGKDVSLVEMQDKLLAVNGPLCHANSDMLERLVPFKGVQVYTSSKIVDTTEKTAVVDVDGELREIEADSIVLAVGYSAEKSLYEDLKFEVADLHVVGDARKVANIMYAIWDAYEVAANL
Mycobacterium paratuberculosis carboxylate reductase MAP_1040c, SEQ ID NO: 38, sequence (A0ACD7BNV2 entry or part of it): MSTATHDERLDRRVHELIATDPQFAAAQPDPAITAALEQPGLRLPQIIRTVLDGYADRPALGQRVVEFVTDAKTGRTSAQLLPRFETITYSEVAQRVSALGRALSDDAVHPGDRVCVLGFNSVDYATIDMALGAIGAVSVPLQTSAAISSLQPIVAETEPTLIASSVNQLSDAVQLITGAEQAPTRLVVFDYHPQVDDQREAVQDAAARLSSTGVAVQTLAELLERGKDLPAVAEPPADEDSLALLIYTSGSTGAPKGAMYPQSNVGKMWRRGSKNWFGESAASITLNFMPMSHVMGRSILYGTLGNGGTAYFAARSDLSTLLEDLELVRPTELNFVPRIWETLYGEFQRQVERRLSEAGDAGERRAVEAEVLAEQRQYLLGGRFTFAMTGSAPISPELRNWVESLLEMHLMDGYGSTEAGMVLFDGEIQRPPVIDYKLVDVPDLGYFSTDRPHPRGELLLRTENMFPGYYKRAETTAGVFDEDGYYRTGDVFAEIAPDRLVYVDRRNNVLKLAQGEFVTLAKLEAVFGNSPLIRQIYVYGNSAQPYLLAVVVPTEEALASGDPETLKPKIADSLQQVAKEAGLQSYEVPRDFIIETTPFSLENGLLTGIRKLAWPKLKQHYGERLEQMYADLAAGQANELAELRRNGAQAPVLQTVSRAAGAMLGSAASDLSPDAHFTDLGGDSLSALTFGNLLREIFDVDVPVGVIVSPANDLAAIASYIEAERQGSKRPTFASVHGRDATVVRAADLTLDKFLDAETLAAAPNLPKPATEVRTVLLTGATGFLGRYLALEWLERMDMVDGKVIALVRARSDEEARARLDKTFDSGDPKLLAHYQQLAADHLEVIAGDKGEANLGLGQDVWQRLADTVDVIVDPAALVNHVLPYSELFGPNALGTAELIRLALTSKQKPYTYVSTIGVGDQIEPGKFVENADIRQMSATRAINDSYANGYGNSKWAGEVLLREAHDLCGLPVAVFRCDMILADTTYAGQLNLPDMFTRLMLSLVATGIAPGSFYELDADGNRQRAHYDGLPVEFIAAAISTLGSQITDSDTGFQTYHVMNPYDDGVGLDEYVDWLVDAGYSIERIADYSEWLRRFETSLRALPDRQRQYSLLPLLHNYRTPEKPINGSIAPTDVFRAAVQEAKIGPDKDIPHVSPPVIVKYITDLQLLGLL

Take `O=C(O)CCCCC(=O)O` [adipic acid]: in data set [1], the Km is 87.5 ± 16.2 mM and the kcat was determined as 2.40 ± 0.26 s⁻¹. Further, in data set [2], the kcat worked out at 2.73 ± 0.20 s⁻¹ and the kcat/Km came to 25.2 ± 1.83 M⁻¹ s⁻¹.
Take `O=C1C=CCCC1` [2-cyclohexen-1-one, 2-Cyclohexen-1-one]: in data set [3], the saturation by substrate entry was “no saturation”.
For `O=C(O)C=CCCC(=O)O` (racemic) [2-hexenedioic acid, 2-Hexenedioic acid], the “fold higher catalytic efficiency (kcat/Km) of EREDBC compared to EREDCA” value in data set [3] (2-hexenedioic acid in 0.25 mM isopropanol, 2.5 to 35 mM) is on record as 14.6 fold. Moreover, the saturation by substrate entry in data set [3] and in data set [4] was “no saturation” each time.
For `CCCC=O` [butyraldehyde], in data set [5] (butyraldehyde, cofactor NADH), the Michaelis-Menten constant (Km) is 14.3 ± 0.88 mM, the kcat amounted to 25.77 ± 0.88 s⁻¹ and the kcat/Km entry is listed as “(1.80 ± 0.06) × ×10^3 M^−1 · s^−1”. In addition, in data set [5] (butyraldehyde, cofactor NADPH), the Km was found to be 1.53 ± 0.39 mM, the kcat was found to be 1.28 ± 0.09 s⁻¹ and the kcat/Km entry is recorded as “(8.37 ± 0.59) × ×10^2 M^−1 · s^−1”.
Regarding “Rsp3534: aminotransferase (AT) from Rhodobacter sphaeroides”, the “Adipaldehyde 10 mM U/mg” value in data set [6] was 0.034 ± 0.005 U/mg.
As for `O=C(O)CCCCCO` [6-hydroxyhexanoic acid], in data set [7], the kcat is 2.91 ± 0.19 s⁻¹ and the kcat/Km is 41.58 ± 2.77 M⁻¹ s⁻¹.
With “RHA1_ro05279: aldehyde reductase (AR) from Rhodococcus jostii”, the “Activity [U/mg protein] Adipaldehyde” value in data set [8] (1.8% DMSO) worked out at 0.721 ± 0.026 U/mg protein. Moreover, the “Activity [U/mg protein] Butyraldehyde” value in data set [8] stood at 0.905 ± 0.834 U/mg protein.
With `CC1=CC(=O)CCC1` [3-methyl-2-cyclohexenone, 3-Methyl-2-cyclohexenone], the saturation by substrate result in data set [3] is “no saturation”.
Consider `O=CCCCCC=O` [adipaldehyde], for which, in data set [5] (setting [9]), the Km turned out to be 6.89 ± 1.38 mM, the kcat came to 3.67 ± 0.31 s⁻¹ and the kcat/Km entry was “(5.33 ± 0.45) × ×10^2 M^−1 · s^−1”.
